pIC50: −log10 of the molar value.
Assays:
VEGFR-2 = VEGFR-2 (Homo sapiens, UniProt P35968); assay: VEGFR-2 kinase assay; format: biochemical; details: poly glu/tyr substrate, 33P-ATP; read-out: VEGFR2 IC50
Experimental: 1. VEGFR-2 and FGFR-1 Kinase Assays:
Incubation mixtures employed for VEGFR-2 or FGFR-1 assay contain the synthetic substrate poly glu/tyr, (4:1), ATP, ATP-γ-^33P and buffer containing Mn^++ and/or Mg^++, DTT, BSA, and Tris buffer. The reaction is initiated by addition of enzyme and after 60 minutes at room temperature is terminated by the addition of 30% TCA to a final concentration of 15% TCA. Inhibitors are brought to 10 mM in 100% DMSO. Assays are prepared in a 96 well format in quadruplicate. Compounds are diluted 1:500 in 100% DMSO and then 1:10 in water for a final DMSO concentration of 10%. 10 μL are added to rows B-H in a 96 well format of 10% DMSO. 20 μl of compound is added to row A at a concentration 5 fold higher than running conditions. Ten μL are transferred to each row followed by six serial dilutions with mixing, and at row F 10 μL are discarded. Row G is a control with no compound and row H is no compound and no enzyme control. Enzyme and substrate are delivered using a Tomtec Quadra station.
Plates are covered with sticky plate tops, incubated at 27° C. for 60 minutes, and then acid precipitated with TCA for 20 minutes on ice. The precipitate is transferred to UniFilter-96, GF/C microplates using either a Tomtec or Packard FilterMate harvester. Activity is determined by quantitating the incorporated radioactivity using a Packard TopCount Microplate Scintillation Counter following the addition of Microscint-20 cocktail into each dried well of the UniFilter microplates.

[1] = target: T1, IGF-1 receptor tyrosine kinase (Homo sapiens, UniProt P08069); assay: IGF-receptor tyrosine kinase assay; format: biochemical; details: poly(Glu/Tyr) substrate, 25 μM ATP, baculovirus expressed enzyme; read-out: IGF1R IC50
T1 construct: host or cells: baculovirus expression system
T1 sequence (P08069 31-1367): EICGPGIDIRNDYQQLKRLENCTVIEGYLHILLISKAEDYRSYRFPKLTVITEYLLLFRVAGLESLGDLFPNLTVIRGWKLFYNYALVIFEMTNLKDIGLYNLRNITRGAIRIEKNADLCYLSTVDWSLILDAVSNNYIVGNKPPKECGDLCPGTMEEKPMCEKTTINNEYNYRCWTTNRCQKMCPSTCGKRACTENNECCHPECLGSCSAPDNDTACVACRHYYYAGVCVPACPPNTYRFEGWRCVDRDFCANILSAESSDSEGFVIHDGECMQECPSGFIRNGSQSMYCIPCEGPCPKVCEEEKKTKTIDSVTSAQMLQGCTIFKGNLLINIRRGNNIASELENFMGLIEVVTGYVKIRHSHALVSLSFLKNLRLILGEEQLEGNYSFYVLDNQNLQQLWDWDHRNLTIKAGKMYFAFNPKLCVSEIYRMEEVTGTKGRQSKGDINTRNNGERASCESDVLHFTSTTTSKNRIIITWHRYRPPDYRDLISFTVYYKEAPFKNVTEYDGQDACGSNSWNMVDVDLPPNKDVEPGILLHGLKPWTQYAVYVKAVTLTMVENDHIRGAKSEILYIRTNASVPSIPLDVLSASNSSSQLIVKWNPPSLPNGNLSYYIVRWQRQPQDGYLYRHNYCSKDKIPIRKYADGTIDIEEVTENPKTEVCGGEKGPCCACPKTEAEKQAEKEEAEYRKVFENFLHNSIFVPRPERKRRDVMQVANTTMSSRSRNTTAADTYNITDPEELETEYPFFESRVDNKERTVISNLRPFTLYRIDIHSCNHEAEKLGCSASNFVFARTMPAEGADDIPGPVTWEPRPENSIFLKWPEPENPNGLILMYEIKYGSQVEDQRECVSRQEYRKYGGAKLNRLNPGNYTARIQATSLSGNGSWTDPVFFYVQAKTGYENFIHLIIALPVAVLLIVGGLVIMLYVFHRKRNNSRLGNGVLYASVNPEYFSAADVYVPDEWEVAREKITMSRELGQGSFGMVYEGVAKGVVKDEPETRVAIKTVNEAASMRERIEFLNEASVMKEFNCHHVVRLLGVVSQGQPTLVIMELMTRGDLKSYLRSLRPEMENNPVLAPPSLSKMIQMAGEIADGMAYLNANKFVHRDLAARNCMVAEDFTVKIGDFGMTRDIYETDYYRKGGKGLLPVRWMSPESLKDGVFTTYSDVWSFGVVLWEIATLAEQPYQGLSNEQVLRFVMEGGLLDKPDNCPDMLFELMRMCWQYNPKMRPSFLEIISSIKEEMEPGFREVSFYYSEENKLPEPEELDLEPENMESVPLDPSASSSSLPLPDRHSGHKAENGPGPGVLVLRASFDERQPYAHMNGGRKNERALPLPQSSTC
Experimental: 3. IGF-Receptor Tyrosine Kinase Assay
The IGF-1 receptor tyrosine kinase was assayed using the synthetic polymer poly(Glu/Tyr) (Sigma Chemicals) as a phosphoacceptor substrate. Each reaction mixture consisted of a total volume of 50 ul and contained 125 ng of baculovirus expressed enzyme, 2.5 μg of poly(Glu/Tyr), 25 μM of ATP, and 0.1 μCi of [γ-^33P]ATP. The mixtures also contained 20 mM MOPS, pH 7.0, 5 mM MnCl2, 0.5 mM […], and 0.1 mg/ml bovine serum albumin. The reaction mixtures were incubated at 30° C. for 45 minutes and kinase activity was determined by quantitation of the amount of radioactive phosphate transferred to the poly(Glu/Tyr) substrate. Incorporation was measured by the addition of cold trichloroacetic acid (TCA) precipitation of the proteins which were collected onto GF/C unifilter plates (Packard Instrument Co., Meriden, Conn.) using a Filtermate universal harvester and the filters were quantitated using a TopCount 96-well liquid scintillation counter (Packard Instrument Co., Meriden, Conn.). Compounds were dissolved in dimethyl sulfoxide to a concentration of 10 mM and were evaluated at six concentrations, each in triplicate.

Sequence of VEGFR-2 (P35968 20-1356): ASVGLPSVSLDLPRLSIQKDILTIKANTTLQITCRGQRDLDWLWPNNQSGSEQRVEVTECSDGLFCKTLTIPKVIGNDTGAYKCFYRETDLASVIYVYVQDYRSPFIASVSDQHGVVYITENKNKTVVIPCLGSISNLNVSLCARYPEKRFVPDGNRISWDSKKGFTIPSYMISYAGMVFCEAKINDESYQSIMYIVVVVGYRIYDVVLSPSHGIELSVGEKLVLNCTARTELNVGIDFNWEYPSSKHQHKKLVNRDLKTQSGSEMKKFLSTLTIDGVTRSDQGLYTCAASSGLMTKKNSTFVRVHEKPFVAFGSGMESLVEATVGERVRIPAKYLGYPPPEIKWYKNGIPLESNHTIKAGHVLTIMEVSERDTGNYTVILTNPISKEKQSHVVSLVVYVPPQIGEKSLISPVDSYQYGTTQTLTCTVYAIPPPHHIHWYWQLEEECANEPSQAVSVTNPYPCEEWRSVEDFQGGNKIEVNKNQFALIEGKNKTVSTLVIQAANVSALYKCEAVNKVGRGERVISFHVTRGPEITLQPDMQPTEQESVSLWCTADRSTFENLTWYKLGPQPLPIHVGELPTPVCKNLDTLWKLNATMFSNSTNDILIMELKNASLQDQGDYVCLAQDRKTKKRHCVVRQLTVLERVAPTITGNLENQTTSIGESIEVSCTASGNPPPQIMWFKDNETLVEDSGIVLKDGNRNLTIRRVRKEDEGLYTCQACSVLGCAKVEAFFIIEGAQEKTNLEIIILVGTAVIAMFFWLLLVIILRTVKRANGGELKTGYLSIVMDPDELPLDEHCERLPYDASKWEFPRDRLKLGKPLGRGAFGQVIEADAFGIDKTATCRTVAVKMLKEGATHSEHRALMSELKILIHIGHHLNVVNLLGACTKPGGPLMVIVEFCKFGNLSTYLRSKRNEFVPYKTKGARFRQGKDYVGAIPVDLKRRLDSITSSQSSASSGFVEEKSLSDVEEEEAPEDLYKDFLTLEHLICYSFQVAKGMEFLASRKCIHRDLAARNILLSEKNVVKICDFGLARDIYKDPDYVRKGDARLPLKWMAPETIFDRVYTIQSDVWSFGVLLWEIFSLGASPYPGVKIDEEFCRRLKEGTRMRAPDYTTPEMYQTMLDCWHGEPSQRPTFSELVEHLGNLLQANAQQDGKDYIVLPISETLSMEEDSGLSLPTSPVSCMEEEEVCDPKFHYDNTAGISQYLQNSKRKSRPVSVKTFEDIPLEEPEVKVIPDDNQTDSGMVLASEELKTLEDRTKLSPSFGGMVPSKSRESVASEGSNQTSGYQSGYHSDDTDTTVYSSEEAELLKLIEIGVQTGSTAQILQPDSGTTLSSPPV

Row | Compound | pIC50 (VEGFR-2) | pIC50 [1]
1 | O=C(NC1CC1)c1cc(NCc2cnc3[nH]c(-c4ccccc4)cc3c2)c(F)cc1F [Example 2, N-cyclopropyl-2,4-difluoro-5-((2-phenyl-1H-pyrrolo[2,3-b]pyridin-5-yl)methylamino)benzamide] | 7.19 | 
2 | O=C(NC1CC1)c1ccc(F)c(CNc2cnc3[nH]c(-c4ccccc4)cc3c2)c1 [Example 3, N-cyclopropyl-4-fluoro-3-((2-phenyl-1H-pyrrolo[2,3-b]pyridin-5-ylamino)methyl)benzamide] | 6.99 | 
3 | O=C(NC1CC1)c1ccc(F)c(NCc2cnc3[nH]c(C4CC4)cc3c2)c1 [Example 4, N-cyclopropyl-3-((2-cyclopropyl-1H-pyrrolo[2,3-b]pyridin-5-yl)methylamino)-4-fluorobenzamide] | 6.84 | 
4 | O=C(NC1CN(S(=O)(=O)c2ccc(F)cc2)C1)c1cccc(Sc2cnc3[nH]c(-c4ccccc4)cc3c2)c1 [Example 13, N-(1-(4-fluorophenylsulfonyl)azetidin-3-yl)-3-(2-phenyl-1H-pyrrolo[2,3-b]pyridin-5-ylthio)benzamide] |  | 6.70

More lines, in order of rising pIC50 (VEGFR-2), values ahead:

Row | pIC50 (VEGFR-2) | pIC50 [1] | Compound
5 | 7.77 |  | O=C(NC1CC1)c1ccc(F)c(NCc2cnc3[nH]c(-c4cccnc4)cc3c2)c1 [Example 5, N-cyclopropyl-4-fluoro-3-((2-(pyridin-3-yl)-1H-pyrrolo[2,3-b]pyridin-5-yl)methylamino)benzamide]
6 | 7.80 |  | O=C(NC1CC1)c1ccc(F)c(NCc2cnc3[nH]c(-c4ccccc4)cc3c2)c1 [Example 1, N-Cyclopropyl-4-fluoro-3-{(2-phenyl-1H-pyrrolo[2,3-b]pyridin-5-yl)methylamino}benzamide]

Reference: US8148361B2, “Kinase inhibitors” (Bristol-Myers Squibb Company, priority 2006, dated 2012)
